Key:
Type in all cases: biochemical
[1] = target: T1, recombinant human 17β-HSD1 (Homo sapiens, UniProt P14061); assay: Inhibition of recombinant human 17β-HSD1; conditions: inhibitor 100 nM; 30 nM estrone, 1 mM NADPH, 30 min RT
T1 construct: made in house; host or cells: Sd9 (Sf9) insect cells, baculovirus (Bac to Bac Expression System)
T1 sequence (P14061 1-328): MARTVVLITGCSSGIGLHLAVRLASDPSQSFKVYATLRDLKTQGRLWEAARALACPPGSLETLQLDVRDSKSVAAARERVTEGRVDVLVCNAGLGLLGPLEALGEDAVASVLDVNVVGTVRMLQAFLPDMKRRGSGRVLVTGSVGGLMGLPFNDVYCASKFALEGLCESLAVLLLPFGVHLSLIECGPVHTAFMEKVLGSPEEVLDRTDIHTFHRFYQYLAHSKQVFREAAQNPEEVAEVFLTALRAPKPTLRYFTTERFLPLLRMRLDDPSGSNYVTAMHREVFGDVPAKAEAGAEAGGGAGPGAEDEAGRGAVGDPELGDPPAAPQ
Experimental: 17β-HSD1 production and isolation: Recombinant baculovirus was generated by the “Bac to Bac Expression System” (Invitrogen). Recombinant bacmid was transfected to Sd9 insect cells using “Cellfectin Reagent” (Invitrogen). 60 h later cells were harvested; the microsomal fraction was isolated as described by Puranen, T. J., Poutanen, M. H., Peltoketo, H. E., Vihko, P. T. and Vihko, R. K. (1994) Site-directed mutagenesis of the putative active site of human 17 β-hydroxysteroid dehydrogenase type 1. Biochem. J. 304: 289-293. Aliquots were stored frozen until determination of enzymatic activity.
Assay—Inhibition of recombinant human 17β-HSD1: Recombinant protein (1 μg/ml) was incubated in 20 mM KH2PO4 pH 7.4 with 30 nM estrone (including 800 000 cpm/ml of ^3H-estrone) and 1 mM NADPH for 30 min at RT, in the presence of the potential inhibitor at concentrations 1 μM or 0.1 μM. Inhibitor stock solutions were prepared in DMSO. Final concentration of DMSO was adjusted to 1% in all samples. The enzyme reaction was stopped by addition of 10% trichloroacetic acid (final concentration). Samples were centrifuged in a microtiter plate at 4000 rpm for 10 min. Supernatants were applied to reverse phase HPLC on a Waters Symmetry C18 column, equipped with a Waters Sentry Guard column. Isocratic HPLC runs were performed at RT at a flow rate of 1 ml/min in acetonitrile:water 48:52 as running solvent. Radioactivity was monitored in the eluate by a Scintillation Analyzer. Total radioactivity for estrone and estradiol were determined in each sample and percent conversion of estrone to estradiol was calculated according to the following formula:
(§1) [formula] Percent inhibition was calculated flowingly: % inhibition=100−% conversion

[2] = system: HSD1 enzyme that is expressed in rabbit placenta tissue; assay: Inhibition of E1 to E2 conversion in rabbit placenta tissue homogenate; conditions: inhibitor 100 nM, 30 nM estrone, 30 min
Experimental: The assay is based on an enzymatic reaction where HSD1 enzyme that is expressed in rabbit placenta tissue converts its natural substance estrone (E1) to estradiol (E2) in the presence of a co-factor β-NADPH.
Homogenization of rabbit placenta tissue: Weight a piece of the frozen tissue into a Precellys ck28 bead tube. Add buffer solution (20 mM KH2PO4 with 1 mM EDTA, pH 7,4) in 1:2 ratio (e.g. 300 mg of tissue:600 μl reaction buffer solution). Insert the bead tubes to homogenizer and homogenize 2×30 s. 6000 rpm. Centrifugated 5 min., 2600 rpm at +4° C. and collect supernatant. Aliquots of homogenate are stored in −80° C.
Assay—Inhibition of E1 to E2 conversion in rabbit placenta tissue: The reaction takes place in a buffer solution (20 mM KH2PO4 with 1 mM EDTA, pH 7,4), including appropriate amount of rabbit placenta homogenate, co-factor (1 mM β-NADPH), Substrate (30 nM estrone), labelled substrate as tracer (5 nM [^3H]-estrone). During a 30-minute incubation part of the estrone is converted to estradiol. The reaction is stopped by lowering the pH to 1 with 10% trichloro acetic acid (TCA). The substrate and conversion products are analyzed by HPLC and a Scintillation counter analyzer. Total radioactivity for estrone and estradiol were determined in each sample and percent conversion of estrone to estradiol was calculated according to the following formula:
Percent inhibition was calculated flowingly: % inhibition=100−% conversion.

[3] = target: T2, recombinant human 17β-HSD2 (Homo sapiens, UniProt P37059); assay: Inhibition of recombinant human 17β-HSD2; conditions: inhibitor 1 μM; 50 nM estradiol, 1 mM NADH, 30 min RT
T2 construct: made in house; host or cells: Sd9 (Sf9) insect cells, baculovirus (Bac to Bac Expression System)
T2 sequence (P37059 1-387): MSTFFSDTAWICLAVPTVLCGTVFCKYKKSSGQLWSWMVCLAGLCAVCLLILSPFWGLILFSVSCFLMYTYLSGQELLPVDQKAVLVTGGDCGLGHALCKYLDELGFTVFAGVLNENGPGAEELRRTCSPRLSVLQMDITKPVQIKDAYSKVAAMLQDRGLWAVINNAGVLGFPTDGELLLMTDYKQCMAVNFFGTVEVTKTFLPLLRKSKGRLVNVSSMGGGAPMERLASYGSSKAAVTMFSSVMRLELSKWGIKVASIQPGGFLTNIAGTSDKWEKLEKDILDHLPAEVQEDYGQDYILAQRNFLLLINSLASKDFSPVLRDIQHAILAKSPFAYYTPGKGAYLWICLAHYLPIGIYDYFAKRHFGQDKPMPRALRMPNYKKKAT
Experimental: 17β-HSD2 production and isolation: Similarly to 17β-HSD1 the Recombinant baculovirus was generated by the “Bac to Bac Expression System” (Invitrogen). Recombinant bacmid was transfected to Sd9 insect cells using “Cellfectin Reagent” (Invitrogen). 60 h later cells were harvested and supernatant were fractionated by the following protocol: • cells were dissolved into 40 ml of A-buffer (40 mM TRIS, pH 8.0, 20% glycerol, 20 μM NAD, 0.4 mM PMSF, 150 mM NaCl, 0.5% dodecyl-β-maltoside+protease inhibitor cocktail) • cells were sonicated • lysate was incubated on ice for 15 min • lysate was centrifuged 5000 rpm 15 min, +4° C. • centrifugation of the supernatant 180 000 g 30 min, +4° C. • pellet was dissolved into 8 ml of A-buffer • not resuspended material was removed by centrifugation 5000 rpm min, +4° C. • the clear supernatant was divided into 100 μl aliquots and were stored frozen until determination of enzymatic activity.
The amount of 17β-HSD2 was analysed by immunoblotting and total protein concentration of each extract batch was determined.
Assay—Inhibition of recombinant human 17β-HSD2: Recombinant protein (4 μg/ml) was incubated in 20 mM KH2PO4 pH 8.5 with 50 nM estradiol (including 800 000 cpm/ml of ^3H-estradiol) and 1 mM NADH for 30 min at RT, in the presence of the potential inhibitor at concentrations 1 μM or 0.1 μM. Inhibitor stock solutions were prepared in DMSO. Final concentration of DMSO was adjusted to 1% in all samples. The enzyme reaction was stopped by addition of 10% trichloroacetic acid (final concentration). Samples were centrifuged in a microtiter plate at 4000 rpm for 10 min. Supernatants were applied to reverse phase HPLC on a Waters Symmetry C18 column, equipped with a Waters Sentry Guard column. Isocratic HPLC runs were performed at RT at a flow rate of 1 ml/min in acetonitrile:water 48:52 as running solvent. Radioactivity was monitored in the eluate by a Scintillation Analyzer. Total radioactivity for estrone and estradiol were determined in each sample and percent conversion of estradiol to estrone was calculated according to the following formula:
as §1

SMILES | inhibition at 0.1 µM [1] [%] | Rabbit placenta inhibition % @100 nM [2] [%] | inhibition at 1 µM [3] [%]
C[C@]12CCC3c4ccc(Cl)cc4CCC3C1[C@H](CCC(=O)Nc1ccccn1)C/C2=N\O (stereo partly drawn) [Compound 68, 3-((13S,15R,E)-3-chloro-17-(hydroxyimino)-13-methyl-7,8,9,11,12,13,14,15,16,17-decahydro-6H-cyclopenta[a]phenanthren-15-yl)-N-(pyridin-2-yl)propanamide] | 67 | 12 | 3
C[C@]12CCC3c4ccc(Cl)cc4CCC3C1[C@H](CCC(=O)Nc1cnccn1)C/C2=N\O (stereo partly drawn) [Compound 74, 3-((13S,15R,E)-3-chloro-17-(hydroxyimino)-13-methyl-7,8,9,11,12,13,14,15,16,17-decahydro-6H-cyclopenta[a]phenanthren-15-yl)-N-(pyrazin-2-yl)propanamide] | 27 | 13 | 2
C[C@]12CCC3c4cccc(F)c4CCC3C1[C@H](CCC(=O)NC1CCCCC1)C/C2=N\O (stereo partly drawn) [Compound 124, N-Cyclohexyl-3-((13S,15R,E)-4-fluoro-17-(hydroxyimino)-13-methyl-7,8,9,11,12,13,14,15,16,17-decahydro-6H-cyclopenta[a]phenanthren-15-yl)propanamide] | 86 | 4 | 4
C[C@]12CCC3c4cccc(F)c4CCC3C1[C@H](CCC(=O)Nc1cccc(F)n1)C/C2=N\O (stereo partly drawn) [Compound 144, 3-((13S,15R,E)-4-fluoro-17-(hydroxyimino)-13-methyl-7,8,9,11,12,13,14,15,16,17-decahydro-6H-cyclopenta[a]phenanthren-15-yl)-N-(6-fluoropyridin-2-yl)propanamide] | 74 | 24 | 10
Cc1ccc(NC(=O)CC[C@@H]2C/C(=N\O)[C@@]3(C)CCC4c5cccc(F)c5CCC4C23)nn1 (stereo partly drawn) [Compound 16, 3-((13S,15R,E)-4-fluoro-17-(hydroxyimino)-13-methyl-7,8,9,11,12,13,14,15,16,17-decahydro-6H-cyclopenta[a]phenanthren-15-yl)-N-(6-methylpyridazin-3-yl) propanamide] | 79 | 81 | 9
C[C@]12CCC3c4ccc(Cl)cc4CCC3C1[C@H](CCC(=O)Nc1ccc(F)cn1)C/C2=N\O (stereo partly drawn) [Compound 58, 3-((13S,15R,E)-3-chloro-17-(hydroxyimino)-13-methyl-7,8,9,11,12,13,14,15,16,17-decahydro-6H-cyclopenta[a]phenanthren-15-yl)-N-(5-fluoropyridin-2-yl)propanamide] | 60 | 1 | 18
C[C@]12CCC3c4ccc(Cl)cc4CCC3C1[C@H](CCC(=O)Nc1cc(F)ccn1)C/C2=N\O (stereo partly drawn) [Compound 156, 3-((13S,15R,E)-3-chloro-17-(hydroxyimino)-13-methyl-7,8,9,11,12,13,14,15,16,17-decahydro-6H-cyclopenta[a]phenanthren-15-yl)-N-(4-fluoropyridin-2-yl)propanamide] | 47 | 3 | 10
C[C@]12CCC3c4ccccc4CCC3C1[C@H](CCC(=O)Nc1ccccn1)C/C2=N\O (stereo partly drawn) [Compound 104, 3-((13S,15R,E)-17-(hydroxyimino)-13-methyl-7,8,9,11,12,13,14,15,16,17-decahydro-6H-cyclopenta[a]phenanthren-15-yl)-N-(pyridin-2-yl)propanamide] | 64 | 9 | -13
C[C@]12CCC3c4cccc(F)c4CCC3C1[C@H](CCC(=O)NC1CCOCC1)C/C2=N\O (stereo partly drawn) [Compound 122, 3-((13S,15R,E)-4-fluoro-17-(hydroxyimino)-13-methyl-7,8,9,11,12,13,14,15,16,17-decahydro-6H-cyclopenta[a]phenanthren-15-yl)-N-(tetrahydro-2H-pyran-4-yl)propanamide] | 67 | 4 | 6
C[C@]12CCC3c4cccc(F)c4CCC3C1[C@H](CCC(=O)Nc1ccc(C#N)cn1)C/C2=N\O (stereo partly drawn) [Compound 148, N-(5-cyanopyridin-2-yl)-3-((13S,15R,E)-4-fluoro-17-(hydroxyimino)-13-methyl-7,8,9,11,12,13,14,15,16,17-decahydro-6H-cyclopenta[a]phenanthren-15-yl)propanamide] | 90 | 35 | 9
CN(C)C(=O)c1ccc(NC(=O)CC[C@@H]2C/C(=N\O)[C@@]3(C)CCC4c5ccc(Cl)cc5CCC4C23)nc1 (stereo partly drawn) [Compound 172, 6-(3-((13S,15R,E)-3-chloro-17-(hydroxyimino)-13-methyl-7,8,9,11,12,13,14,15,16,17-decahydro-6H-cyclopenta[a]phenanthren-15-yl)propanamido)-N,N-dimethylnicotinamide] | 45 | 9 | 9
